This experiment concerns the target T1, PDE4B (human recombinant) (Homo sapiens, UniProt Q07343).
T1 construct: made in house
In words: Inhibition of PDE4B activity: SPA and/or Fluorescence Polarisation (FP) assay. The experiment is classed as biochemical. The conditions noted are these: one reading (n=1) or average of 2 or more readings, read-out: PDE4B pIC50 (±about 0.5) (converted). On the procedure:
The ability of compounds to inhibit catalytic activity at PDE4B or 4D (human recombinant), PDE3 (from bovine aorta), PDE5 (human recombinant) or PDE6 (from bovine retina) can optionally be determined by Scintillation Proximity Assay (SPA) in a 96-well format.
The enzyme concentration is adjusted so that no more than 20% hydrolysis of the substrate defined below occurs in control wells without compound, during the incubation. For the PDE3, PDE4B and PDE4D assays, [5′,8-3H]Adenosine 3′,5′-cyclic phosphate (Amersham Pharmacia Biotech, code TRK.559; or Amersham Biosciences UK Ltd, Pollards Wood, Chalfont St Giles, Buckinghamshire HP8 4SP, UK) is added to give 0.05 uCi per well and about 10 nM final concentration. […] Plates containing assay mixture, suitably approx. 100 ul volume of assay mixture, are mixed on an orbital shaker for 5 minutes and incubated at ambient temperature for 1 hour. Phosphodiesterase SPA beads (Amersham Pharmacia Biotech, code RPNQ 0150) are added (about 1 mg per well) to terminate the assay. Plates are sealed and shaken and allowed to stand at ambient temperature for 35 minutes to 1 hour (suitably 35 minutes) to allow the beads to settle. […] Curves are analysed using ActivityBase and XLfit (ID Business Solutions Limited, 2 Ocean Court, Surrey Research Park, Guildford, Surrey GU2 7QB, United Kingdom). Results are expressed as pIC50 values.
The ability of compounds to inhibit catalytic activity at PDE4B (human recombinant) or PDE4D (human recombinant) can optionally be determined by IMAP Fluorescence Polarisation (FP) assay (IMAP Explorer kit, available from Molecular Devices Corporation, Sunnydale, Calif., USA; Molecular Devices code: R8062) in 384-well format.
The IMAP FP assay is able to measure PDE activity in an homogenous, non-radioactive assay format. The FP assay uses the ability of immobilised trivalent metal cations, coated onto nanoparticles (tiny beads), to bind the phosphate group of Fl-AMP that is produced on the hydrolysis of fluorescein-labelled (Fl) cyclic adenosine mono-phosphate (Fl-cAMP) to the non-cyclic Fl-AMP form. […] Binding of Fl-AMP product to the beads (coated with the immobilised trivalent cations) slows the rotation of the bound Fl-AMP and leads to an increase in the fluorescence polarisation ratio of parallel to perpendicular light. Inhibition of the PDE reduces/inhibits this signal increase.
The enzyme level is set by experimentation so that reaction is linear throughout the incubation. Fluorescein adenosine 3′,5′-cyclic phosphate (from Molecular Devices Corporation, Molecular Devices code: R7091) is added to give about 40 nM final concentration (final assay volume usually ca. 20-40 ul, suitably ca. 20 ul). Plates are mixed on an orbital shaker for 10 seconds and incubated at ambient temperature for 40 minutes. IMAP binding reagent (as described above, from Molecular Devices Corporation, Molecular Devices code: R7207) is added (60 ul of a 1 in 400 dilution in binding buffer of the kit stock solution) to terminate the assay. Plates are allowed to stand at ambient temperature for 1 hour. The Fluorescence Polarisation (FP) ratio of parallel to perpendicular light is measured using an Analyst™ plate reader (from Molecular Devices Corporation). […] Curves are analysed using ActivityBase and XLfit (ID Business Solutions Limited, 2 Ocean Court, Surrey Research Park, Guildford, Surrey GU2 7QB, United Kingdom). Results are expressed as plC50 values.

Structures can show the parent of a compound that is named as a salt.

The values below come from patent US20090131431A1, “Pyrazolo[3,4-b]pyridine compounds, and their use as a PDE4 inhibitors” (priority 2005, published 2009).

T1 sequence (Q07343 1-564 isoform Q07343-2): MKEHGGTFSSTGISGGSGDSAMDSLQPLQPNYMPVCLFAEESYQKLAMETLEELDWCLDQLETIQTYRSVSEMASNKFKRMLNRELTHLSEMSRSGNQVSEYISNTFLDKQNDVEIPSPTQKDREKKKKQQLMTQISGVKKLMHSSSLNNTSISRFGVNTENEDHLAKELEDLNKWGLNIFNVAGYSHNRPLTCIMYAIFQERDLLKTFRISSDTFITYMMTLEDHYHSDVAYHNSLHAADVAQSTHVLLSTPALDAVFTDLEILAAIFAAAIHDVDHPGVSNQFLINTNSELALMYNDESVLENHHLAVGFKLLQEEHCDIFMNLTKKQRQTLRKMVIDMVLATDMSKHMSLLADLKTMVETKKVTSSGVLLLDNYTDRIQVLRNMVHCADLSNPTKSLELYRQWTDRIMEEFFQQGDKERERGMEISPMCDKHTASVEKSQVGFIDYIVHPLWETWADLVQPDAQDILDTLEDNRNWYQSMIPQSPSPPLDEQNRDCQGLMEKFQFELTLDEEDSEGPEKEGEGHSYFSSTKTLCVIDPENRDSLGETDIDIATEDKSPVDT

In the case of `CCc1nc2c(cnn2CC)c(NC2CCOCC2)c1CNC(=O)c1ccc2c(c1)CCCS2(=O)=O` [Example 258, N-{[1,6-diethyl-4-(tetrahydro-2H-pyran-4-ylamino)-1H-pyrazolo[3,4-b]pyridin-5-yl]methyl}-3,4-dihydro-2H-1-benzothiopyran-6-carboxamide 1,1-dioxide], the IC50 was 10 to 100 pM.
The value for `CCn1ncc2c(NC3CCOCC3)c(CNC(=O)c3cncs3)c(C)nc21` [Example 226, N-{[1-ethyl-6-methyl-4-(tetrahydro-2H-pyran-4-ylamino)-1H-pyrazolo[3,4-b]pyridin-5-yl]methyl}-1,3-thiazole-5-carboxamide] was 126 to 1000 pM; that for `CCn1ncc2c(NC3CCN(C(N)=O)CC3)c(CNC(=O)c3cccc(NC(C)=O)c3)c(C)nc21` [Example 264, 4-({5-[({[3-(acetylamino)phenyl]carbonyl}amino)methyl]-1-ethyl-6-methyl-1H-pyrazolo[3,4-b]pyridin-4-yl}amino)-1-piperidinecarboxamide] was 10 to 100 pM.
The value for `CCc1nc2c(cnn2CC)c(NC2CCOCC2)c1CNC(=O)c1cccc(NC(C)=O)c1` [Example 147, 3-(acetylamino)-N-{[1,6-diethyl-4-(tetrahydro-2H-pyran-4-ylamino)-1H-pyrazolo[3,4-b]pyridin-5-yl]methyl}benzamide] was 10 to 100 pM; that for `CCn1ncc2c(NC3CCN(C(N)=O)CC3)c(CNC(=O)c3ccc(NC(C)=O)c4c3OCC4)c(C)nc21` [Example 305, 4-({5-[({[4-(acetylamino)-2,3-dihydro-1-benzofuran-7-yl]carbonyl}amino)methyl]-1-ethyl-6-methyl-1H-pyrazolo[3,4-b]pyridin-4-yl}amino)-1-piperidinecarboxamide] was 10 to 100 pM; that for `CCc1nc2c(cnn2CC)c(NC2CCOCC2)c1CNC(=O)c1cncs1` [Example 234, N-{[1,6-diethyl-4-(tetrahydro-2H-pyran-4-ylamino)-1H-pyrazolo[3,4-b]pyridin-5-yl]methyl}-1,3-thiazole-5-carboxamide] was 126 to 1000 pM.
For `CCc1nc2c(cnn2CC)c(NC2CCOCC2)c1CNC(=O)c1ccnn1C` [Example 158, N-{[1,6-diethyl-4-(tetrahydro-2H-pyran-4-ylamino)-1H-pyrazolo[3,4-b]pyridin-5-yl]methyl}-1-methyl-1H-pyrazole-5-carboxamide], the IC50 was 126 to 1000 pM.
For `CCc1nc2c(cnn2CC)c(NC2CCOCC2)c1CNC(=O)c1cccc(N2CCCC2=O)c1` [Example 149, N-{[1,6-diethyl-4-(tetrahydro-2H-pyran-4-ylamino)-1H-pyrazolo[3,4-b]pyridin-5-yl]methyl}-3-(2-oxo-1-pyrrolidinyl)benzamide], the IC50 is 10 to 100 pM.
As to `CCn1ncc2c(NC3CCOCC3)c(CNC(=O)c3cc(C)on3)c(C)nc21` [Example 225, N-{[1-ethyl-6-methyl-4-(tetrahydro-2H-pyran-4-ylamino)-1H-pyrazolo[3,4-b]pyridin-5-yl]methyl}-5-methyl-3-isoxazolecarboxamide], the IC50 was 126 to 1000 pM.
Consider `CCc1nc2c(cnn2CC)c(NC2CCN(C(N)=O)CC2)c1CNC(=O)c1ccc(C(C)C)cc1` [Example 208, 4-({1,6-diethyl-5-[({[4-(1-methylethyl)phenyl]carbonyl}amino)methyl]-1H-pyrazolo[3,4-b]pyridin-4-yl}amino)-1-piperidinecarboxamide], for which the IC50 is 10 to 100 pM.
As to `CCn1ncc2c(NC3CCN(C(N)=O)CC3)c(CNC(=O)c3ccc(N4CCOCC4)cc3)c(C)nc21` [Example 303, 4-({1-ethyl-6-methyl-5-[({[4-(4-morpholinyl)phenyl]-carbonyl}amino)methyl]-1H-pyrazolo[3,4-b]pyridin-4-yl}amino)-1-piperidine-carboxamide, Formate Salt], the IC50 was 10 to 100 pM.
As to `CCc1nc2c(cnn2CC)c(NC2CCOCC2)c1CNC(=O)c1ccoc1` [Example 154, N-{[1,6-diethyl-4-(tetrahydro-2H-pyran-4-ylamino)-1H-pyrazolo[3,4-b]pyridin-5-yl]methyl}-3-furancarboxamide], the IC50 is 126 to 1000 pM.
The value for `CCc1nc2c(cnn2CC)c(NC2CCOCC2)c1CNC(=O)c1ccc(C(C)(C)C)cc1` [Example 252, N-{[1,6-diethyl-4-(tetrahydro-2H-pyran-4-ylamino)-1H-pyrazolo[3,4-b]pyridin-5-yl]methyl}-4-(1,1-dimethylethyl)benzamide] was 10 to 100 pM.
The value for `CCc1nc2c(cnn2CC)c(NC2CCOCC2)c1CNC(=O)c1ccc(S(C)(=O)=O)cc1` [Example 249, N-{[1,6-diethyl-4-(tetrahydro-2H-pyran-4-ylamino)-1H-pyrazolo[3,4-b]pyridin-5-yl]methyl}-4-(methylsulfonyl)benzamide] was 126 to 1000 pM.
Take `CCn1ncc2c(NC3CCOCC3)c(CNC(=O)c3ccc(C(F)(F)F)o3)c(C)nc21` [Example 324, N-{[1-ethyl-6-methyl-4-(tetrahydro-2H-pyran-4-ylamino)-1H-pyrazolo[3,4-b]pyridin-5-yl]methyl}-5-(trifluoromethyl)-2-furancarboxamide]: the IC50 was 126 to 1000 pM.
In the case of `CCc1nc2c(cnn2CC)c(NC2CCN(C(N)=O)CC2)c1CNC(=O)c1ccc(NC(C)=O)cc1` [Example 242, 4-({5-[({[4-(acetylamino)phenyl]carbonyl}amino)methyl]-1,6-diethyl-1H-pyrazolo[3,4-b]pyridin-4-yl}amino)-1-piperidinecarboxamide], the IC50 is 10 to 100 pM.
The value for `CCc1nc2c(cnn2CC)c(NC2CCOCC2)c1CN1Cc2nnsc2C1=O` [Example 344, 5-{[1,6-diethyl-4-(tetrahydro-2H-pyran-4-ylamino)-1H-pyrazolo[3,4-b]pyridin-5-yl]methyl}-4,5-dihydro-6H-pyrrolo[3,4-d][1,2,3]thiadiazol-6-one] was 126 to 1000 pM.
Turning to `CCc1nc2c(cnn2CC)c(NC2CCOCC2)c1CN1CCN(C)C1=O` [Example 343, 1-{[1,6-diethyl-4-(tetrahydro-2H-pyran-4-ylamino)-1H-pyrazolo[3,4-b]pyridin-5-yl]methyl}-3-methyl-2-imidazolidinone], the IC50 was 126 to 1000 pM.
On to `CCn1ncc2c(NC3CCN(C(N)=O)CC3)c(CNC(=O)c3ccccc3O)c(C)nc21` [Example 260, 4-{[1-ethyl-5-({[(2-hydroxyphenyl)carbonyl]amino}methyl)-6-methyl-1H-pyrazolo[3,4-b]pyridin-4-yl]amino}-1-piperidinecarboxamide], for which the IC50 is 10 to 100 pM.
For `CCc1nc2c(cnn2CC)c(NC2CCOCC2)c1CNC(=O)c1cc(C)on1` [Example 233, N-{[1,6-diethyl-4-(tetrahydro-2H-pyran-4-ylamino)-1H-pyrazolo[3,4-b]pyridin-5-yl]methyl}-5-methyl-3-isoxazolecarboxamide], the IC50 was 10 to 100 pM.
`CCc1nc2c(cnn2CC)c(NC2CCN(C(N)=O)CC2)c1CNC(=O)c1ccc(C2CCCC2)cc1` [Example 210, 4-{[5-({[(4-cyclopentylphenyl)carbonyl]amino}methyl)-1,6-diethyl-1H-pyrazolo[3,4-b]pyridin-4-yl]amino}-1-piperidinecarboxamide]: the IC50 is 10 to 100 pM.
Turning to `CCc1nc2c(cnn2CC)c(NC2CCOCC2)c1CNC(=O)c1nc(C)oc1C(F)(F)F` [Example 155, N-{[1,6-diethyl-4-(tetrahydro-2H-pyran-4-ylamino)-1H-pyrazolo[3,4-b]pyridin-5-yl]methyl}-2-methyl-5-(trifluoromethyl)-1,3-oxazole-4-carboxamide], the IC50 was 126 to 1000 pM.
The value for `CCc1nc2c(cnn2CC)c(NC2CCOCC2)c1CNC(=O)c1cnccn1` [Example 146, N-{[1,6-diethyl-4-(tetrahydro-2H-pyran-4-ylamino)-1H-pyrazolo[3,4-b]pyridin-5-yl]methyl}-2-pyrazinecarboxamide] was 126 to 1000 pM.
